In one test the target is hMOR (Homo sapiens (Human), UniProt P35372). Briefly: cAMP accumulation assay (inhibition of forskolin-stimulated cAMP) in CHO-K1 cells stably expressing hMOR. Format: cell-based. As to the method:
Mu opioid agonist activity for selected compounds was determined by the inhibition of forskolin-stimulated cAMP accumulation following MOR activation in CHO-K1 cells stably expressing the hMOR. […] IC50 values were calculated from […] analysis of the concentration-response curves using Graph Pad Prizm.

The next test has as its target mu opioid receptor (MOR) (Homo sapiens (Human), UniProt P35372). As to the kind of experiment: Competitive radioligand binding at MOR ([3H] Naloxone). As to the method: (§1) Receptor Binding at MOR and NMDA.
(§2) Affinities of various compounds were measured in vitro using competitive radioligand binding assays. Serial dilutions of test compounds were incubated with membranes prepared from CHO-K1 cells expressing the mu opioid receptor (MOR; for opioid receptor binding) or rat forebrain membranes (for NMDA receptor binding). 2 nM [^3H] Naloxone (MOR) or 0.2 nM [^3H] MK801 (NMDA) were used as the specific, competitive radioligands. 10 uM Naloxone (MOR), or 10 uM MK801 (NMDA) was used to determine non-specific binding. Bound radioactivity was measured using a scintillation counter & IC50 values for test compounds were determined by non-linear regression analysis using a one-site competition model (Graph Pad Prizm). Due to each test compound being solubilized in a buffered system for the assay, the results presented herein reflect the free base activity.

The target in a further test is NMDA receptor. Briefly: Competitive radioligand binding at NMDA receptor ([3H] MK801), rat forebrain membranes. Particulars: 0.2 nM [3H] MK801, reflects free base activity. As to the method: as §1, §2
Where [1] appears, read: hMOR-expressing CHO-K1 cells, 10 μM forskolin, 60 minute incubation, read-out: MOR cAMP IC50.
The mark [2] stands for this setting: membranes from CHO-K1 cells expressing MOR, 2 nM [3H] Naloxone, reflects free base activity, read-out: MOR IC50.

Read-outs that look alike come from different tables or passages of the source.

As for `COCCOCCOCCN1CC[C@]23CCCC[C@H]2[C@H]1Cc1ccc(O)cc13` [Compound 16, 17-{2-{2-(2-methoxyethoxy)ethoxy]ethyl}-morphinan-3-ol], the IC50 at hMOR (setting [1]) and at mu opioid receptor (MOR) (setting [2]) was > 1000 nM in each case.

`COc1ccccc1Nc1ccc2c(c1)[C@@]13CCCC[C@H]1[C@@H](C2)N(C)CC3` [Compound 30, N-(2-methoxyphenyl)-17-methylmorphinan-3-amine]: the values for the IC50 against hMOR, on mu opioid receptor (MOR) and on NMDA receptor were 10 to 100 nM, 10 to 100 nM and 1000 to 10000 nM, respectively.

For `COCCOCCOCCOCCOCCOCC(=O)Nc1nc2cc3c(cc2s1)C[C@@H]1[C@@H]2CCCC[C@]32CCN1C` [Compound 69], the IC50 is 100 to 1000 nM on hMOR (setting [1]), 100 to 1000 nM on mu opioid receptor (MOR) (setting [2]) and 1000 to 10000 nM at NMDA receptor.

For `CN1CC[C@]23CCCC[C@H]2[C@H]1Cc1ccc(Nc2cccnc2)cc13` [Compound 43, 17-methyl-N-(pyridin-3-yl)morphinan-3-amine], the IC50 on hMOR lay within 0.1 to 10 nM; at mu opioid receptor (MOR), 0.1 to 10 nM; on NMDA receptor, 0.1 to 100 nM.

`COCCOc1c(O)ccc2c1[C@@]13CCCC[C@H]1[C@@H](C2)N(C)CC3` [Compound 22, 4-(2-methoxyethoxy)-17-methylmorphinan-3-ol]: the IC50 against hMOR and on mu opioid receptor (MOR) was 10 to 100 nM each time.

Consider `COCCN1CC[C@]23CCCC[C@H]2[C@H]1Cc1ccc(Nc2cccnc2)cc13` [Compound 86, 17-(2-methoxyethyl)-N-(pyridin-3-yl)morphinan-3-amine], for which the IC50 at mu opioid receptor (MOR) was in the range of 0.1 to 10 nM; on NMDA receptor, 1000 to 10000 nM.

For the molecule `CN1CC[C@]23CCCC[C@H]2[C@H]1Cc1ccc(-c2ccoc2)cc13` [Compound 51, 3-(3-furyl)-17-methylmorphinan], the IC50 fell in the range of 10 to 100 nM at mu opioid receptor (MOR) and 1000 to 10000 nM at NMDA receptor.

With `COc1ccccc1C(=O)Nc1ccc2c(c1)[C@@]13CCCC[C@H]1[C@@H](C2)N(C)CC3` [Compound 26, 2-methoxy-N-((4bR,8aR,9R)-11-methyl-6,7,8,8a,9,10-hexahydro-5H-9,4b-(epiminoethano)phenanthren-3-yl)benzamide], the IC50 was > 1000 nM at mu opioid receptor (MOR) (setting [2]) and > 10000 nM on NMDA receptor.

Take `COCCOCCOCCOCCOCCNc1nc2ccc3c(c2s1)[C@@]12CCCC[C@H]1[C@@H](C3)N(C)CC2` [Compound 77, (7R,7aR,11aR)—N-(2,5,8,11,14-pentaoxahexadecan-16-yl)-14-methyl-7,7a,8,9,10,11-hexahydro-6H-7,11a-(epiminoethano)phenanthro[3,4-d]thiazol-2-amine]: the results for the IC50 on mu opioid receptor (MOR) (setting [2]) and at NMDA receptor were > 1000 nM and > 10000 nM, respectively.

As for `COCCOCCOCCOCCOCCOc1ccc(Nc2ccc3c(c2)[C@@]24CCCC[C@H]2[C@@H](C3)N(C)CC4)cn1` [Compound 64, 17-methyl-N-[6-(2,5,8,11,14-pentaoxahexadecan-16-yloxy)pyridin-3-yl]morphinan-3-amine], the values for the IC50 at mu opioid receptor (MOR) (setting [2]) and at NMDA receptor were 10 to 100 nM and > 10000 nM, respectively.

In the case of `COCCN1CC[C@]23CCCC[C@H]2[C@H]1Cc1ccc(Nc2ccncc2)cc13` [Compound 93, 17-(2-methoxyethyl)-N-(pyridin-4-yl)morphinan-3-amine], the IC50 at mu opioid receptor (MOR) fell in the range of 10 to 100 nM; at NMDA receptor, 0.1 to 100 nM.

Take `CN1CC[C@]23CCCC[C@H]2[C@H]1Cc1cc2ncc(N)nc2cc13` [Compound 94, (4aR,5R,12bR)-15-methyl-2,3,4,4a,5,6-hexahydro-1H-5,12b-(epiminoethano)naphtho[1,2-g]quinoxalin-10-amine]: the figures for the IC50 at mu opioid receptor (MOR) (setting [2]) and on NMDA receptor were > 1000 nM and 100 to 1000 nM, respectively.

Take `COCCOCCOc1cncc(Nc2ccc3c(c2)[C@@]24CCCC[C@H]2[C@@H](C3)N(C)CC4)c1` [Compound 48, N-{5-[2-(2-methoxyethoxy)ethoxy]pyridin-3-yl}-17-methylmorphinan-3-amine]: the IC50 on mu opioid receptor (MOR) (setting [2]) is 10 to 100 nM; at NMDA receptor it was > 10000 nM.

With `COCCOCCOc1ccc(Nc2ccc3c(c2)[C@@]24CCCC[C@H]2[C@@H](C3)N(C)CC4)cn1` [Compound 58, N-{6-[2-(2-methoxyethoxy)ethoxy]pyridin-3-yl}-17-methylmorphinan-3-amine], the IC50 on mu opioid receptor (MOR) (setting [2]) was 10 to 100 nM; on NMDA receptor it was > 10000 nM.

For `COCCNC(=N)Nc1nc2cc3c(cc2s1)C[C@@H]1[C@@H]2CCCC[C@]32CCN1C` [Compound 92, 1-(2-methoxyethyl)-3-((4aR,5R,11bR)-14-methyl-2,3,4,4a,5,6-hexahydro-1H-5,11b-(epiminoethano)phenanthro[3,2-d]thiazol-9-yl)guanidine], the IC50 on mu opioid receptor (MOR) (setting [2]) is 100 to 1000 nM; at NMDA receptor, > 10000 nM.

Consider `COCCOCCOCCO[C@@H]1CC[C@H]2[C@H]3Cc4ccc(O)cc4[C@@]2(CCN3C)C1` [Compound 47, (6β)-6-{2-[2-(2-methoxyethoxy)ethoxy]ethoxy}-17-methylmorphinan-3-ol], for which the IC50 against hMOR and on mu opioid receptor (MOR) was 0.1 to 10 nM in each case.

Turning to `CN1CC[C@]23CCCC[C@H]2[C@H]1Cc1ccc(Nc2cccnn2)cc13` [Compound 61, 17-methyl-N-(pyridazin-3-yl)morphinan-3-amine], the IC50 at mu opioid receptor (MOR) lay within 100 to 1000 nM; on NMDA receptor, 1000 to 10000 nM.

As to `COCCOCCOCCOCCOCCOc1cncc(Nc2ccc3c(c2)[C@@]24CCCC[C@H]2[C@@H](C3)N(C)CC4)c1` [Compound 54, (4bR,8aR,9R)—N-(5-(2,5,8,11,14-pentaoxahexadecan-16-yloxy)pyridin-3-yl)-11-methyl-6,7,8,8a,9,10-hexahydro-5H-9,4b-(epiminoethano)phenanthren-3-amine], the results for the IC50 at mu opioid receptor (MOR) (setting [2]) and on NMDA receptor were 10 to 100 nM and > 10000 nM, respectively.

With `COCCOCCOCCOCCOCCOc1ccc2c(c1)[C@@]13CCCC[C@H]1[C@@H](C2)N(C)CC3` [Compound 14, 17-methyl-3-(2,5,8,11,14-pentaoxahexadecan-16-yloxy)morphinan], the IC50 was > 1000 nM at mu opioid receptor (MOR) (setting [2]) and > 10000 nM at NMDA receptor.

`CN1CC[C@]23CCCC[C@H]2[C@H]1Cc1cc2sc(NC(=N)N)nc2cc13` [Compound 84, 1-((4aR,5R,11bR)-14-methyl-2,3,4,4a,5,6-hexahydro-1H-5,11b-(epiminoethano)phenanthro[3,2-d]thiazol-9-yl)guanidine]: the IC50 on mu opioid receptor (MOR) (setting [2]) lay in the range of 100 to 1000 nM; on NMDA receptor, 1000 to 10000 nM.

`CN1CC[C@]23CCCC[C@H]2[C@H]1Cc1ccc(NC(=O)OC(C)(C)C)cc13` [Compound 40, tert-butyl (17-methylmorphinan-3-yl)carbamate]: the values for the IC50 at mu opioid receptor (MOR) and at NMDA receptor were 100 to 1000 nM and 1000 to 10000 nM, respectively.

As to `COc1ccc(C(=O)Nc2ccc3c(c2)[C@@]24CCCC[C@H]2[C@@H](C3)N(C)CC4)cc1` [Compound 24, 4-methoxy-N-((4bR,8aR,9R)-11-methyl-6,7,8,8a,9,10-hexahydro-5H-9,4b-(epiminoethano)phenanthren-3-yl)benzamide], the IC50 at mu opioid receptor (MOR) is 100 to 1000 nM; at NMDA receptor it was > 10000 nM.

`COCCOCCN1CC[C@]23CCCC[C@H]2[C@H]1Cc1ccc(-c2cn[nH]c2)cc13` [Compound 100, (4bR,8aR,9R)-11-(2-(2-methoxyethoxy)ethyl)-3-(1H-pyrazol-4-yl)-6,7,8,8a,9,10-hexahydro-5H-9,4b-(epiminoethano)phenanthrene]: the IC50 was > 1000 nM at mu opioid receptor (MOR) (setting [2]) and 1000 to 10000 nM at NMDA receptor.

As for `CN1CC[C@]23CCCC[C@H]2[C@H]1Cc1cc2ccc(=O)[nH]c2cc13` [Compound 102, (4aR,5R,12bR)-15-methyl-1,2,3,4,4a,5,6,11-octahydro-10H-5,12b-(epiminoethano)naphtho[2,1-g]quinolin-10-one], the results for the IC50 on mu opioid receptor (MOR) (setting [2]) and at NMDA receptor were > 1000 nM and > 10000 nM, respectively.

On to `COCCOCCOCCO[C@H]1CC[C@H]2[C@H]3Cc4ccc(O)cc4[C@@]2(CCN3C)C1` [Compound 9, (6α)-6-{2-[2-(2-methoxyethoxy)ethoxy]ethoxy}-17-methylmorphinan-3-ol], for which the IC50 is 10 to 100 nM on mu opioid receptor (MOR) and > 10000 nM on NMDA receptor.

Turning to `COCCOCCN1CC[C@]23CCCC[C@H]2[C@H]1Cc1ccc(Nc2ccnnc2)cc13` [Compound 99, (4bR,8aR,9R)-11-(2-(2-methoxyethoxy)ethyl)-N-(pyridazin-4-yl)-6,7,8,8a,9,10-hexahydro-5H-9,4b-(epiminoethano)phenanthren-3-amine], the IC50 at mu opioid receptor (MOR) (setting [2]) was > 1000 nM; on NMDA receptor, 1000 to 10000 nM.

As for `COCCOCCOCCO[C@H]1CCC[C@H]2[C@H]3Cc4ccc(O)cc4[C@@]12CCN3C` [Compound 75, (5α)-5-{2-[2-(2-methoxyethoxy)ethoxy]ethoxy}-17-methylmorphinan-3-ol], the IC50 at mu opioid receptor (MOR) (setting [2]) is 10 to 100 nM; on NMDA receptor, > 10000 nM.

Regarding `COCCOCCOCCNc1nc2ccc3c(c2s1)[C@@]12CCCC[C@H]1[C@@H](C3)N(C)CC2` [Compound 78, (7R,7aR,11aR)—N-(2-(2-(2-methoxyethoxy)ethoxy)ethyl)-14-methyl-7,7a,8,9,10,11-hexahydro-6H-7,11a-(epiminoethano)phenanthro[3,4-d]thiazol-2-amine], the figures for the IC50 at mu opioid receptor (MOR) (setting [2]) and at NMDA receptor were > 1000 nM and > 10000 nM, respectively.

Take `COCCN1CC[C@]23CC(=O)CC[C@H]2[C@H]1Cc1ccc(O)cc13` [Compound 3, 3-hydroxy-17-(2-methoxyethyl)morphinan-6-one]: the IC50 against hMOR and at mu opioid receptor (MOR) was 0.1 to 10 nM in each case.

The record behind these values is patent US10766864B2, “Morphinan derivatives for the treatment of neuropathic pain” (Nektar Therapeutics, priority 2015, dated 2020).
